Among the data in patent US6653306B1, “Epoxy-steroidal aldosterone antagonist and angiotensin II antagonist combination therapy” (G.D. Searle & Co., priority 1995, dated 2003) are IC50 values, retold here.

pIC50: −log10 of the molar value.

This assay deals with angiotensin II AT1 receptor. Kind of assay: Assay A: Angiotensin II binding activity (125I-AII displacement, rat uterine membrane preparation). On the procedure:
Assay A: Antiotensin II Binding Activity
Compounds of the invention were tested for ability to bind to the smooth muscle angiotensin II receptor using a rat uterine membrane preparation. […] Rat uterine membranes were prepared from fresh tissue. All procedures were carried out at 4° C. Uteri were stripped of fat and homogenized in phosphate-buffered saline at pH 7.4 containing 5 mM EDTA. The homogenate was centrifuged at 1500×g for 20 min., and the supernatant was recentrifuged at 100,000×g for 60 min. The pellet was resuspended in buffer consisting of 2 mM EDTA and 50 mM Tris-HCl (pH 7.5) to a final protein concentration of 4 mg/ml. […] The reaction was initiated by the addition of membrane protein and the mixture was incubated at 25° C. for 60 min. The incubation was terminated with ice-cold 50 mM Tris-HCl (pH 7.5) and the mixture was filtered to separate membrane-bound labelled peptide from the free ligand. The incubation tube and filter were washed with ice-cold buffer. Filters were assayed for radioactivity in a Micromedic gamma counter.
Nonspecific binding was defined as binding in the presence of 10 μM of unlabelled AII. Specific binding was calculated as total binding minus nonspecific binding. […] Binding data were analyzed by a nonlinear least-squares curve fitting program.
Consider `CCCCc1nc(-c2ccccc2)nn1Cc1ccc(-c2ccccc2-c2nnn[nH]2)nc1` [Compound 259], for which the pIC50 (in general, the IC50 on a negative log10 scale, so that one unit is a factor of ten) was 7.27.

On to `CCCCn1cc(C2CCCC2)n(Cc2ccc(-c3ccccc3-c3nnn[nH]3)nc2)c1=O` [Compound 192], for which the pIC50 is 6.85. This pIC50 lies 0.42 log units lower than the previous one.

For the compound `CCCCc1cn(CCCC)c(=O)n1Cc1ccc(-c2ncccc2-c2nnn[nH]2)cc1` [Compound 224], the pIC50 was 7.04.

Consider `CCCCc1cn(C23CC4CC(CC(C4)C2)C3)c(=O)n1Cc1ccc(-c2ccccc2-c2nnn[nH]2)nc1` [Compound 214], for which the pIC50 was 7.19.

In the case of `CCCCc1nc(CCC2CCCCC2)nn1Cc1ccc(-c2ccccc2-c2nnn[nH]2)cc1` [Compound 43], the pIC50 is 7.72. This pIC50 lies 0.53 log units higher than the previous one.

On to `CCCCc1nn(C/C=C/c2ccccc2)c(=O)n1Cc1ccc(-c2ccccc2-c2nn[nH]n2)cc1` [Compound 105], for which the pIC50 was 6.54.

Compound `CCCCc1nc(CNC(=O)OC(C)(C)C)n(Cc2ccc(-c3ccccc3-c3nnn[nH]3)cc2)n1` [Compound 34] had a pIC50 of 6.19.

`CCCCc1nc(-c2ccccc2OC)nn1Cc1ccc(-c2ccccc2-c2nnn[nH]2)nc1` [Compound 265] gave a pIC50 of 6.96.

For `CCCCc1nc(CC(OCC)OCC)nn1Cc1ccc(-c2ccccc2-c2nnn[nH]2)cc1` [Compound 38], the pIC50 is 8.00.

`CCCCc1nc(C(F)(F)C(F)(F)F)nn1Cc1ccc(-c2ccccc2-c2nnn[nH]2)cc1` [Compound 69] gave a pIC50 of 7.82.

`CCCCc1cn(-c2ccccc2C(C)C)c(=O)n1Cc1ccc(-c2ccccc2-c2nnn[nH]2)nc1` [Compound 219] had a pIC50 of 7.85.

Consider `CCCCc1nc(-c2ccccc2C(C)C)nn1Cc1ccc(-c2ccccc2-c2nnn[nH]2)nc1` [Compound 263], for which the pIC50 is 7.24. This pIC50 lies 0.61 log units lower than the previous one.

Compound `CCCCc1cn(C2CCCCC2(C)C)c(=O)n1Cc1ccc(-c2ccccc2-c2nnn[nH]2)nc1` (stereo not shown) [Compound 237] gave a pIC50 of 8.44. This pIC50 lies 1.20 log units higher than the previous one.

In the case of `CCCCc1nc(CCCC)n(Cc2ccc(-c3ncccc3-c3nnn[nH]3)cc2)n1` [Compound 245], the pIC50 was 7.01. This pIC50 lies 1.43 log units lower than the previous one.

Take `CCCCCc1nc(Cc2ccc(-c3ccccc3-c3nnn[nH]3)nc2)n(CCCC)n1` [Compound 156]: the pIC50 is 7.11.

As to `CCCCc1nn(CCCCC(=O)OC)c(=O)n1Cc1ccc(-c2ccccc2-c2nn[nH]n2)cc1` [Compound 100], the pIC50 was 8.36. This pIC50 is 1.25 log units higher than that of the compound before.

On to `CCn1nc(C(C)(F)F)nc1Cc1ccc(-c2ccccc2-c2nnn[nH]2)nc1` [Compound 164], for which the pIC50 is 5.77.

Consider `CCCCn1nc(C(C)=O)nc1Cc1ccc(-c2ccccc2-c2nnn[nH]2)nc1` [Compound 183], for which the pIC50 was 6.41. This pIC50 is 0.64 log units higher than that of the compound before.

As for `CCCCc1cn(-c2c(C)cc(C(C)(C)C)cc2C)c(=O)n1Cc1ccc(-c2ccccc2-c2nnn[nH]2)nc1` [Compound 233], the pIC50 was 7.08. Compared with the last compound, the pIC50 is 0.67 log units higher.

`CCCCc1nc(C(F)F)n(Cc2ccc(-c3ccccc3-c3nnn[nH]3)cc2)n1` [Compound 48] had a pIC50 of 6.17.

The compound `CCCCc1nc(CCCC)n(Cc2ccc(-c3cccnc3-c3nnn[nH]3)cc2)n1` [Compound 242] showed a pIC50 of 6.96.

Consider `CCCCCCCCc1nc(CCCC)nn1Cc1ccc(-c2ccccc2-c2nnn[nH]2)cc1` [Compound 28], for which the negative logarithm of the IC50 (pIC50) was 6.24. This pIC50 is 0.72 log units lower than that of the compound before.

As for `CCCCc1nc(CC(CC)CC)nn1Cc1ccc(-c2ccccc2-c2nnn[nH]2)nc1` [Compound 251], the pIC50 is 7.60.

Compound `CCCCc1nc(CC)nn1Cc1ccc(-c2ccccc2C(=O)O)cc1` [Compound 75] had a pIC50 of 6.24.

The compound `CCCCc1cn(C2C3CC4CC(C3)C2C4)c(=O)n1Cc1ccc(-c2ccccc2-c2nnn[nH]2)nc1` (stereo not shown) [Compound 213] gave a pIC50 of 7.29. Compared with the last compound, the pIC50 is 1.05 log units higher.

`CCCCc1nc(CC(CC)CC)n(Cc2ccc(-c3ccccc3-c3nnn[nH]3)nc2)n1` [Compound 252]: the pIC50 was 7.89. Against the preceding compound, the pIC50 is 0.60 log units higher.

As to `CCCCc1nc(CCc2ccccc2)n(Cc2ccc(-c3ccccc3-c3nnn[nH]3)nc2)n1` [Compound 254], the negative-log IC50 (pIC50) is 7.14.

Compound `CCCCc1nc(Cc2ccccc2)nn1Cc1ccc(-c2ccccc2-c2nnn[nH]2)cc1` [Compound 44] showed a pIC50 of 7.80.

As for `CCCCc1nc(-c2c(F)cccc2F)nn1Cc1ccc(-c2ccccc2-c2nnn[nH]2)nc1` [Compound 269], the pIC50 was 8.01. Compared with the last compound, the pIC50 is 0.21 log units higher.

Compound `CCCCc1nc(CC)n(Cc2ccc(-c3ccccc3-c3nnn[nH]3)cc2)n1` [Compound 40] gave a pIC50 of 7.08.

The compound `CCCCc1cn(CCC)c(=O)n1Cc1ccc(-c2ccccc2-c2nnn[nH]2)nc1` [Compound 196] had a pIC50 of 7.51.

`CCCCc1nc(CF)n(Cc2ccc(-c3ccccc3-c3nnn[nH]3)cc2)n1` [Compound 60] had a pIC50 of 5.66. Compared with the last compound, the pIC50 is 1.85 log units lower.

For the compound `CCCCc1cn(CCCC)c(=O)n1Cc1ccc(-c2cccnc2-c2nnn[nH]2)cc1` [Compound 227], the pIC50 was 7.05. This pIC50 lies 1.39 log units higher than the previous one.

With `CCCCc1nc(-c2ccccc2C)nn1Cc1ccc(-c2ccccc2-c2nnn[nH]2)nc1` [Compound 261], the pIC50 is 7.74.

The compound `CCCCc1nc(-c2ccccc2OC)n(Cc2ccc(-c3ccccc3-c3nnn[nH]3)nc2)n1` [Compound 266] had a pIC50 of 6.54.

The compound `CCCCc1nc(-c2c(F)cccc2F)n(Cc2ccc(-c3ccccc3-c3nnn[nH]3)nc2)n1` [Compound 270] showed a pIC50 of 7.68. Against the preceding compound, the pIC50 is 1.14 log units higher.

With `CCCCCn1nc(CCCC)nc1Cc1ccc(-c2ccccc2-c2nnn[nH]2)nc1` [Compound 155], the pIC50 is 7.07.

`CCCCc1nc(C(OC)OC)n(Cc2ccc(-c3ccccc3-c3nnn[nH]3)cc2)n1` [Compound 23] had a pIC50 of 6.37. Against the preceding compound, the pIC50 is 0.70 log units lower.

`CCCCn1nc(C(C)(OC)OC)nc1Cc1ccc(-c2ccccc2-c2nnn[nH]2)nc1` [Compound 182] showed a pIC50 of 7.23. This pIC50 lies 0.86 log units higher than the previous one.

Regarding `CCCCc1nc(CCCNC(=O)OC(C)(C)C)nn1Cc1ccc(-c2ccccc2-c2nnn[nH]2)cc1` [Compound 68], the pIC50 is 8.07.

Turning to `CCCCc1cn(C2CCCC2)c(=O)n1Cc1ccc(-c2ccccc2-c2nnn[nH]2)nc1` [Compound 207], the pIC50 was 7.00. Compared with the last compound, the pIC50 is 1.07 log units lower.

The compound `CCCCc1nc(-c2ccccc2)n(Cc2ccc(-c3ccccc3-c3nnn[nH]3)nc2)n1` [Compound 260] showed a pIC50 of 6.66.

`CCCCn1nc(CCc2ccccc2)nc1Cc1ccc(-c2ccccc2-c2nnn[nH]2)cc1` [Compound 131]: the pIC50 is 8.02.

For the compound `CCCn1cc(CC(C)C)n(Cc2ccc(-c3ccccc3-c3nnn[nH]3)nc2)c1=O` [Compound 187], the pIC50 was 6.11.

In turn, `CCCCc1nc(CCCC)n(Cc2ccc(-c3ccccc3C(=O)O)nc2)n1` [Compound 240] had a pIC50 of 6.92.

The compound `CCCCc1cn(CCCC)c(=O)n1Cc1ccc(-c2ccncc2-c2nnn[nH]2)cc1` [Compound 226] had a pIC50 of 7.03. The pIC50 values of the last two compounds are within 0.2 log units of each other.

For the compound `CCCCn1cc(CCC(C)C)n(Cc2ccc(-c3ccccc3-c3nnn[nH]3)nc2)c1=O` [Compound 189], the pIC50 was 7.54.

In turn, `CCCCc1nc(C(=O)CCC)nn1Cc1ccc(-c2ccccc2-c2nnn[nH]2)cc1` [Compound 31] gave a pIC50 of 7.85.

With `CCCCc1cn(-c2c(C(C)C)cccc2C(C)C)c(=O)n1Cc1ccc(-c2ccccc2-c2nnn[nH]2)nc1` [Compound 235], the pIC50 was 7.47.

With `CCCCCCCCc1nc(CCCC)n(Cc2ccc(-c3ccccc3-c3nnn[nH]3)cc2)n1` [Compound 29], the pIC50 was 6.80.

Compound `CCCCc1nc(CCc2ccccc2)nn1Cc1ccc(-c2ccccc2-c2nnn[nH]2)nc1` [Compound 253] had a pIC50 of 8.59. This pIC50 lies 1.79 log units higher than the previous one.

For the compound `CCCCc1nc(CCCC)n(Cc2ccc(-c3ccncc3-c3nnn[nH]3)cc2)n1` [Compound 243], the pIC50 is 6.60.

As for `CCCCc1cn(CC)c(=O)n1Cc1ccc(-c2ccccc2-c2nnn[nH]2)nc1` [Compound 195], the pIC50 was 7.47.

In turn, `CCCCc1cn(C)c(=O)n1Cc1ccc(-c2ccccc2-c2nnn[nH]2)nc1` [Compound 194] showed a pIC50 of 7.33.

On to `CCCCc1nc(CC23CC4CC(CC(C4)C2)C3)n(Cc2ccc(-c3ccccc3-c3nnn[nH]3)cc2)n1` [Compound 61], for which the pIC50 was 6.96. Compared with the last compound, the pIC50 is 0.37 log units lower.

For `CCCCc1cn(-c2ccccc2OC)c(=O)n1Cc1ccc(-c2ccccc2-c2nnn[nH]2)nc1` [Compound 218], the pIC50 is 8.05.

In turn, `CCCCc1cn(-c2c(C)cccc2C)c(=O)n1Cc1ccc(-c2ccccc2-c2nnn[nH]2)nc1` [Compound 222] had a pIC50 of 8.30.

For `CCCCc1nc(C)n(Cc2ccc(-c3ccccc3-c3nnn[nH]3)cc2)n1` [Compound 33], the pIC50 is 6.20.

Compound `CCCCc1nc(C2CCCCC2)nn1Cc1ccc(-c2ccccc2-c2nnn[nH]2)cc1` [Compound 66] showed a pIC50 of 7.92.

In turn, `CCCCc1nc(-c2ccccc2)nn1Cc1ccc(-c2ccccc2-c2nnn[nH]2)cc1` [Compound 21] gave a pIC50 of 7.06.

In the case of `CCCCc1nc(CN)nn1Cc1ccc(-c2ccccc2-c2nnn[nH]2)cc1` [Compound 27], the pIC50 is 6.74. Against the preceding compound, the pIC50 is 0.32 log units lower.

The compound `CCCCc1cn(CC(C)C)c(=O)n1Cc1ccc(-c2ccccc2-c2nnn[nH]2)nc1` [Compound 197] had a pIC50 of 7.85.

As to `CCCCc1cn(-c2ccccc2)c(=O)n1Cc1ccc(-c2ccccc2-c2nnn[nH]2)nc1` [Compound 215], the pIC50 is 7.35.

For the compound `CCCCc1nc(CF)nn1Cc1ccc(-c2ccccc2-c2nnn[nH]2)cc1` [Compound 59], the pIC50 is 6.92.

As to `CCCCc1nc(-c2ccccc2C(C)C)n(Cc2ccc(-c3ccccc3-c3nnn[nH]3)nc2)n1` [Compound 264], the pIC50 was 7.96.

`CCCCn1nc(C(OCCC)OCCC)nc1Cc1ccc(-c2ccccc2-c2nnn[nH]2)nc1` [Compound 177] showed a pIC50 of 7.59.

In the case of `CCCCc1cn(CCCC)c(=O)n1Cc1ccc(-c2cnccc2-c2nnn[nH]2)cc1` [Compound 225], the pIC50 was 6.80.
